Some results are limits rather than exact numbers.

The test has as its system primary rat mixed cortical cells. Nature of the test: In vitro myelination assay (MBP positive myelin strands, fold myelin pixels above background). The class given is cell-based. Conditions: Rattus norvegicus, read-out: Fold myelin pixels above background relative to baseline of no added compound; for fold induction at 1 µM: 1.0 μM compound; for fold induction at 10 µM: 10.0 μM compound. Put shortly:
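Compounds at 1.0 and 10.0 μM were incubated 14 days with dissociated P1 rat cortical cells, which were then fixed and immunostained for MBP. Myelination was scored as fold MBP myelin pixels per well over the no-compound baseline.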

Turning to `Cc1cc(Nc2ncn(-c3cc(F)cc(F)c3)n2)cc(N2CCOC3(CC3)C2)c1` [Compound 1035, 1-(3,5-difluorophenyl)-N-[3-methyl-5-(4-oxa-7-azaspiro[2.5]octan-7-yl)phenyl]-1,2,4-triazol-3-amine], the fold induction at 1 µM was 1 to 10 and the fold induction at 10 µM fell in the range of 1 to 10.

As to `Cc1cc(Nc2ncn(-c3cc(F)cc(F)c3)n2)cc(N2CCN(CCO)CC2)c1` [Compound 1036, 2-[4-[3-[[1-(3,5-difluorophenyl)-1,2,4-triazol-3-yl]amino]-5-methyl-phenyl]piperazin-1-yl]ethanol], the fold induction at 1 µM is ≤ 1 and the fold induction at 10 µM is ≤ 1.

`Cc1cc(Nc2ncn(-c3cc(F)cc(F)c3)n2)cc(N2CC(S(C)(=O)=O)C2)c1` [Compound 1037, 1-(3,5-difluorophenyl)-N-[3-methyl-5-(3-methylsulfonylazetidin-1-yl)phenyl]-1,2,4-triazol-3-amine]: the fold induction at 1 µM lay in the range of 10 to 100 and the fold induction at 10 µM is ≤ 1.

For `Cc1cc(Nc2ncn(-c3cc(F)cc(F)c3)n2)cc(N2CCC(N3CCCC3)CC2)c1` [Compound 1038, 1-(3,5-difluorophenyl)-N-[3-methyl-5-(4-pyrrolidin-1-yl-1-piperidyl)phenyl]-1,2,4-triazol-3-amine], the fold induction at 1 µM is 1 to 10 and the fold induction at 10 µM fell in the range of 10 to 100.

Take `[2H]C1(N2CCN(c3cc(C)cc(Nc4ncn(-c5ccccc5)n4)c3)CC2)CCOC1` (centres unmarked) [Compound 1039, N-[3-[4-(3-deuteriotetrahydrofuran-3-yl)piperazin-1-yl]-5-methyl-phenyl]-1-phenyl-1,2,4-triazol-3-amine]: the fold induction at 1 µM is 10 to 100 and the fold induction at 10 µM is ≤ 1.

With `Cc1cc(Nc2ncn(-c3cc(F)cc(F)c3)n2)cc(N2CCC(N3CCC(O)C3)C2)c1` (centres unmarked) [Compound 1040, 1-[1-[3-[[1-(3,5-difluorophenyl)-1,2,4-triazol-3-yl]amino]-5-methyl-phenyl]pyrrolidin-3-yl]pyrrolidin-3-ol], the fold induction at 1 µM was 10 to 100 and the fold induction at 10 µM is ≤ 1.

Consider `[2H]C1([2H])N(C(=O)C2CC2)C([2H])([2H])C([2H])([2H])N(c2cc(Nc3ncn(-c4cc(F)cc(F)c4)n3)cc(C(F)F)c2)C1([2H])[2H]` [Compound 1041, cyclopropyl-[2,2,3,3,5,5,6,6-octadeuterio-4-[3-(difluoromethyl)-5-[[1-(3,5-difluorophenyl)-1,2,4-triazol-3-yl]amino]phenyl]piperazin-1-yl]methanone], for which the fold induction at 1 µM was in the range of 1 to 10 and the fold induction at 10 µM fell in the range of 1 to 10.

Regarding `[2H]C1([2H])N(c2cc(C)cc(Nc3ncn(-c4cc(F)cc(F)c4)n3)c2)C([2H])([2H])C([2H])([2H])N(C2CCOC2)C1([2H])[2H]` (centres unmarked) [Compound 1042, 1-(3,5-difluorophenyl)-N-[3-methyl-5-(2,2,3,3,5,5,6,6-octadeuterio-4-tetrahydrofuran-3-yl-piperazin-1-yl)phenyl]-1,2,4-triazol-3-amine], the fold induction at 1 µM lay in the range of 10 to 100 and the fold induction at 10 µM is ≤ 1.

With `Cc1cc(Nc2ncn(-c3cc(F)cc(F)c3)n2)c(F)c(N2CCN(CCO)CC2)c1` [Compound 1043, 2-[4-[3-[[1-(3,5-difluorophenyl)-1,2,4-triazol-3-yl]amino]-2-fluoro-5-methyl-phenyl]piperazin-1-yl]ethanol], the fold induction at 1 µM was in the range of 10 to 100 and the fold induction at 10 µM is ≤ 1.

`[2H]C1([2H])N(C(C)=O)C([2H])([2H])C([2H])([2H])N(c2cc(C)cc(Nc3ncn(-c4cc(F)cc(F)c4)n3)c2)C1([2H])[2H]` [Compound 1044, 1-[2,2,3,3,5,5,6,6-octadeuterio-4-[3-[[1-(3,5-difluorophenyl)-1,2,4-triazol-3-yl]amino]-5-methyl-phenyl]piperazin-1-yl]ethanone]: the fold induction at 1 µM lay in the range of 1 to 10 and the fold induction at 10 µM lay within 1 to 10.
